One assay deals with HCT-116 colon carcinoma. Nature of the assay: Inhibition of cell proliferation (14C-thymidine incorporation), HCT-116. The following applies: Homo sapiens, HCT-116, HCT116. The assay is classed as cell-based. The procedure, abridged: (§1)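 Cells (3000-8000/well) grown 24 h at 37° C, 5% CO2, then given compound in DMSO for 24 h before adding methyl 14C-thymidine (0.2 uCi/well) for a further 24 h with drug. After PBS washes, incorporation into DNA counted by scintillation.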

For a further assay, the target named is T1, VEGF-R2 (Rattus norvegicus, UniProt O08775).
T1 construct: polyhistidine (N)
T1 sequence (O08775 786-1343): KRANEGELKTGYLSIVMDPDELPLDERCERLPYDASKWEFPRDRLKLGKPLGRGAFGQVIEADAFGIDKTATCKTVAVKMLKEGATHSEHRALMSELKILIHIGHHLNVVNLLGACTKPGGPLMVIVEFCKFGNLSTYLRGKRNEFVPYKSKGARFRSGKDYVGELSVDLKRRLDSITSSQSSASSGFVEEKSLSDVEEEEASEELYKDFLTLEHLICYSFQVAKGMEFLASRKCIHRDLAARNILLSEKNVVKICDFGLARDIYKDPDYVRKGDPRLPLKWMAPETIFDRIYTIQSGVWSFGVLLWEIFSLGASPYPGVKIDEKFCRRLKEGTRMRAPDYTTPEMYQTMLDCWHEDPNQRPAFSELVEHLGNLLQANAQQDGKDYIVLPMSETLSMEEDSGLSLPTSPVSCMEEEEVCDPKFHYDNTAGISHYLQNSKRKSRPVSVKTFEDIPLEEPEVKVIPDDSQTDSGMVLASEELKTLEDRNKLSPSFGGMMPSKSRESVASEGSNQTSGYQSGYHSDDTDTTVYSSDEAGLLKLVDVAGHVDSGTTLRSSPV
Nature of the assay: VEGF-R2 Screening Assay. As to conditions: 33P-γ-ATP incorporation, 10 μM ATP. The assay is classed as biochemical. A digest of the protocol: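 The N-terminally His-tagged rat VEGF-R2 kinase domain (aa 786-1343), diluted in 50 mM Tris-HCl pH 8.0 with 0.1% BSA, phosphorylated a biotinylated histone-H1 peptide with 33P-γ-ATP on Flashplates for 1 h at 30 °C in 1% DMSO. After washes with EDTA/PBS, immobilized 33P was counted by scintillation.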

Assay [1] deals with HeLa cervical adenocarcinoma. As to the kind of experiment: Inhibition of cell proliferation (14C-thymidine incorporation), HeLa.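 Further: HeLa cells in 96-well scintillating plates, compound for 24 h then 24 h more with 14C-thymidine, counting label built into new DNA against DMSO-only control wells.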 The format is cell-based. As to conditions: Homo sapiens.
The target of the next assay is T2, CDK1:Cyclin-B (Homo sapiens, UniProt P06493).
T2 construct: purchased New England Biolabs, Beverly, Mass; 6020; host or cells: insect cells
T2 sequence (P06493 whole entry): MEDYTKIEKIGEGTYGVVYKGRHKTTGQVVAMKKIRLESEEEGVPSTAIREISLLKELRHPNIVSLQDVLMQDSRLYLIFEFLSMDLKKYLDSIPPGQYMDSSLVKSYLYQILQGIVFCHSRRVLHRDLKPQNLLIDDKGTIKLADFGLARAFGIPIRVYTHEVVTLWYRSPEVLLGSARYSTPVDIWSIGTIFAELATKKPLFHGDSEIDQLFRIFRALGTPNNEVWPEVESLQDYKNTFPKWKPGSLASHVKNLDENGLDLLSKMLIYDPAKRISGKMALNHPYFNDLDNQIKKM
T2 sequence (P14635 whole entry partner): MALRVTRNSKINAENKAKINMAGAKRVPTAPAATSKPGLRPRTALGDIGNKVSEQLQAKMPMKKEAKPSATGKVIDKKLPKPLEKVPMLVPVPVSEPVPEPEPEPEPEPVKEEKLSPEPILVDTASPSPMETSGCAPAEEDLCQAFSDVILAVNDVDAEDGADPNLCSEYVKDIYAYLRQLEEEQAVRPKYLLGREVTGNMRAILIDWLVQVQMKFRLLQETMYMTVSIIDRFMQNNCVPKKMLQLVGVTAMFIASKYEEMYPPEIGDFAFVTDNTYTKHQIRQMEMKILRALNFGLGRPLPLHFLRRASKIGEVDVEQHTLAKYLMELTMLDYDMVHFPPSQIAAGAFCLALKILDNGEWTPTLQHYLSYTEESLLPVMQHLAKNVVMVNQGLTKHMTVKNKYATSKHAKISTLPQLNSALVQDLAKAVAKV
Nature of the assay: CDK1 Screening Assay. The assay is classed as biochemical. As to conditions: 33P-γ-ATP incorporation, 10 μM ATP. A digest of the protocol:
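Human CDK1/cyclin B co-expressed in insect cells (30 ng/well) in 50 mM Tris pH 8, 10 mM MgCl2, with 10 μM ATP, 33P-γ-ATP and 0.025 μM biotinylated histone H1 peptide (reaction-mix levels); 1% DMSO final. 1 h at 30° C. 33P incorporation into streptavidin-captured peptide by scintillation counting.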

In another assay the target is T3, Aurora-A (Mus musculus, UniProt P97477).
T3 construct: made in house; host or cells: sf9 insect cells
T3 sequence (P97477 1-395): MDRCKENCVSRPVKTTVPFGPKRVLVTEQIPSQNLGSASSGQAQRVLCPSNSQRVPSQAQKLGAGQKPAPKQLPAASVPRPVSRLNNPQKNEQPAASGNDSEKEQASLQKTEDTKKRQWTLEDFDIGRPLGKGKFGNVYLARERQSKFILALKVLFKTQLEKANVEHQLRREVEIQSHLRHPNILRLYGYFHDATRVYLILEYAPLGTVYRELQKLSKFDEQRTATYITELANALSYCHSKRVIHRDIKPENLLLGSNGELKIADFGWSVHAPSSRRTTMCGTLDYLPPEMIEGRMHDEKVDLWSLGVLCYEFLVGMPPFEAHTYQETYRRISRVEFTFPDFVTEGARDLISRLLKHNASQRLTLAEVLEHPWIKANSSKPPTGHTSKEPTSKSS
Nature of the assay: Aurora-A Screening Assay. The format is biochemical, murine. The following applies: 33P-γ-ATP incorporation, 10 μM ATP.

A further assay concerns A375 malignant melanoma. Nature of the assay: Inhibition of cell proliferation (14C-thymidine incorporation), A375. As to conditions: Homo sapiens, A-375. The format is cell-based, human. A digest of the protocol: as §1
(In general: Incorporation of labelled thymidine or its analogues reports DNA synthesis.)

The target in the next assay is T4, HER2 (Homo sapiens, UniProt P04626).
T4 construct: polyhistidine (N)
T4 sequence (P04626 676-1255 limits assumed): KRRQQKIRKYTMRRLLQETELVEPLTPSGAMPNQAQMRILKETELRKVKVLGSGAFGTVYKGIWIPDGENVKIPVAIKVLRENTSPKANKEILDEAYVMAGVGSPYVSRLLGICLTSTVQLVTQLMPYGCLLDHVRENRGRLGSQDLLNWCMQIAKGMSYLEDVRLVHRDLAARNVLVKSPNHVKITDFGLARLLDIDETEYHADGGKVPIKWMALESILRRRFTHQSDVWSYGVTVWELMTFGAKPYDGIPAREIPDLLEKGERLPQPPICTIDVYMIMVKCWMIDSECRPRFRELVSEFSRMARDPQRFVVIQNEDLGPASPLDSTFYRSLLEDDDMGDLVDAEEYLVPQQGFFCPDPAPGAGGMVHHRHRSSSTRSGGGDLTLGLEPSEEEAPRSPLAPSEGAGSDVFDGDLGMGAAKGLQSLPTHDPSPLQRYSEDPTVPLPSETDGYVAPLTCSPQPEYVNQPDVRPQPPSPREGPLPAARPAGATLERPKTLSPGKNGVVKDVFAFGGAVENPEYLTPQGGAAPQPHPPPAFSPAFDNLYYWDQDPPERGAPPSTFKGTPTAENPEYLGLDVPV
As to the kind of experiment: HER2 kinase Screening Assay. The assay is classed as biochemical. The following applies: 33P-γ-ATP incorporation, 10 μM ATP.

The target of a further assay is T5, RET (Homo sapiens, UniProt P07949).
T5 construct: the RET cytoplasmic domain consisting of the last 492 amino acids of the intracellular domain of the RET tyrosine kinase; histidine tag (N); made in house; host or cells: Hi5 insect cells
T5 sequence (P07949 658-1114 limits assumed): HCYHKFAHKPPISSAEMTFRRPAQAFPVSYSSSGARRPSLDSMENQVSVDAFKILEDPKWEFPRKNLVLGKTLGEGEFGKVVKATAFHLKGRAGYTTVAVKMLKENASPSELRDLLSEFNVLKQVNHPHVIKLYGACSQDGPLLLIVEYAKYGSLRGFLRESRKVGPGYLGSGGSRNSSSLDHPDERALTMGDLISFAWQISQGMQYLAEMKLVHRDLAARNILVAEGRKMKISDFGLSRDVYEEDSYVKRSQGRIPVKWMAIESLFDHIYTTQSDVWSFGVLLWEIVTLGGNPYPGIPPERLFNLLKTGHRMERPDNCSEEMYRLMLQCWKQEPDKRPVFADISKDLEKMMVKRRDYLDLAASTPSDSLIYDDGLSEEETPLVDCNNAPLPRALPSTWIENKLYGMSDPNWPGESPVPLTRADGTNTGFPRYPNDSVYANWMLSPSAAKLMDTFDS
As to the kind of experiment: RET Kinase Screening Assay. The assay is classed as biochemical. As to conditions: 33P-γ-ATP incorporation, 10 μM ATP.

Here are results for 16 molecules from patent US7855205B2, “Pyrimidinyl substituted fused-pyrrolyl compounds useful in treating kinase disorders” (Janssen Pharmaceutica NV, priority 2004, dated 2010).

Each structure is given as a SMILES string.

Take `c1cnc2[nH]cc(-c3ccnc(Nc4ccc(CCN5CCCC5)cc4)n3)c2c1` [Cpd 19, [4-(2-Pyrrolidin-1-yl-ethyl)-phenyl]-[4-(1H-pyrrolo[2,3-b]pyridin-3-yl)-pyrimidin-2-yl]-amine]: the IC50 (in general, the midpoint of a concentration-inhibition curve) with HCT-116 colon carcinoma amounted to 0.013 µM; on VEGF-R2 it was 0.065 µM; in assay [1] it was 0.029 µM; on CDK1:Cyclin-B it was 0.032 µM; at Aurora-A, 0.162 µM; in the assay with A375 malignant melanoma, 0.021 µM. The IC50 on HER2 worked out at 0.011 µM.

In the case of `CN1CCN(CCc2ccc(Nc3nccc(-c4c[nH]c5ncccc45)n3)cc2)CC1` [Cpd 21, {4-[2-(4-Methyl-piperazin-1-yl)-ethyl]-phenyl}-[4-(1H-pyrrolo[2,3-b]pyridin-3-yl)-pyrimidin-2-yl]-amine], the IC50 with HCT-116 colon carcinoma was 0.0159 µM; against VEGF-R2, 0.075 µM; in assay [1], 0.0315 µM; against CDK1:Cyclin-B it was 0.068 µM; at Aurora-A it was 0.197 µM; with A375 malignant melanoma, 0.0295 µM. In addition, on HER2, the IC50 was determined as 0.009 µM.

In the case of `CCN(CC)CCc1ccc(Nc2nccc(-c3c[nH]c4ncccc34)n2)cc1` [Cpd 24, [4-(2-Diethylamino-ethyl)-phenyl]-[4-(1H-pyrrolo[2,3-b]pyridin-3-yl)-pyrimidin-2-yl]-amine], the IC50 with HCT-116 colon carcinoma is 0.018 µM; against VEGF-R2, 0.089 µM; in assay [1], 0.034 µM; against CDK1:Cyclin-B, 0.028 µM; on Aurora-A, 0.244 µM; in the assay with A375 malignant melanoma it was 0.031 µM. On HER2, this molecule came in with an IC50 of 0.009 µM.

As for `Clc1cc(CCN2CCOCC2)ccc1Nc1nccc(-c2c[nH]c3ncccc23)n1` [Cpd 56, {2-Chloro-4-[2-(morpholin-4-yl)ethyl]phenyl}-[4-(1H-pyrrolo[2,3-b]pyridin-3-yl)-pyrimidin-2-yl]-amine], the IC50 against RET turned out to be 1.24 µM; with HCT-116 colon carcinoma, 0.774 µM; against VEGF-R2, 1.04 µM; in assay [1], 1.1 µM; on CDK1:Cyclin-B, 0.105 µM; against Aurora-A, 0.859 µM. Moreover, in the assay on A375 malignant melanoma, inhibition was half-maximal at 0.727 µM (IC50).

For `Cc1cc(CCN2CCCCC2)ccc1Nc1nccc(-c2c[nH]c3ncccc23)n1` [Cpd 50, {4-[2-(Piperidin-1-yl)ethyl]-2-methylphenyl}-[4-(1H-pyrrolo[2,3-b]pyridin-3-yl)-pyrimidin-2-yl]-amine], the IC50 at RET was 3.07 µM; with HCT-116 colon carcinoma, 0.00283 µM; against VEGF-R2 it was 0.959 µM; in assay [1], 0.00268 µM; at CDK1:Cyclin-B it was 0.0011 µM; at Aurora-A it was 0.902 µM. The molecule further returned an IC50 in the assay on A375 malignant melanoma of 0.00284 µM.

For the molecule `CNCCc1ccc(Nc2nccc(-c3c[nH]c4ncccc34)n2)cc1` [Cpd 25, [4-(2-Methylamino-ethyl)-phenyl]-[4-(1H-pyrrolo[2,3-b]pyridin-3-yl)-pyrimidin-2-yl]-amine], the IC50 worked out at 0.068 µM in the assay on HCT-116 colon carcinoma; 0.093 µM against VEGF-R2; 0.062 µM in assay [1]; 0.051 µM against CDK1:Cyclin-B; 0.182 µM on Aurora-A; 0.04 µM with A375 malignant melanoma. For the same molecule, the IC50 at HER2 is 0.012 µM.

Regarding `CCNCCc1ccc(Nc2nccc(-c3c[nH]c4ncccc34)n2)cc1` [Cpd 26, [4-(2-Ethylamino-ethyl)-phenyl]-[4-(1H-pyrrolo[2,3-b]pyridin-3-yl)-pyrimidin-2-yl]-amine], the IC50 with HCT-116 colon carcinoma is 0.0135 µM; at VEGF-R2, 0.094 µM; in assay [1], 0.026 µM; on CDK1:Cyclin-B, 0.014 µM; against Aurora-A it was 0.157 µM; in the assay on A375 malignant melanoma, 0.0222 µM. The IC50 against HER2 is 0.006 µM.

On to `CN(C)c1ccc(Nc2nccc(-c3c[nH]c4ncccc34)n2)cc1` [Cpd 38, (4-Dimethylaminophenyl)-[4-(1H-pyrrolo[2,3-b]pyridin-3-yl)-pyrimidin-2-yl]-amine], for which the IC50 on RET was found to be 0.821 µM; with HCT-116 colon carcinoma, 0.0216 µM; against VEGF-R2 it was 0.081 µM; in assay [1], 0.0358 µM; at CDK1:Cyclin-B, 0.0096 µM; against Aurora-A, 0.112 µM. For the same molecule, 0.0494 µM corresponded to half-maximal inhibition in the assay on A375 malignant melanoma (IC50).

As for `CN1CCN(CCc2ccc(Nc3nccc(-c4c[nH]c5ncccc45)n3)c(Cl)c2)CC1` [Cpd 55, {2-Chloro-4-[2-(4-methylpiperizin-1-yl)ethyl]phenyl}-[4-(1H-pyrrolo[2,3-b]pyridin-3-yl)-pyrimidin-2-yl]-amine], the IC50 was 1.15 µM against RET; 0.264 µM in the assay with HCT-116 colon carcinoma; 0.342 µM against VEGF-R2; 0.292 µM in assay [1]; 0.0408 µM against CDK1:Cyclin-B; 0.785 µM against Aurora-A. Also, the IC50 in the assay on A375 malignant melanoma was 0.233 µM.

With `CNCCc1ccc(Nc2nccc(-c3c[nH]c4ncccc34)n2)c(C)c1` [Cpd 45], the IC50 was 1.54 µM against RET; 0.0022 µM in the assay on HCT-116 colon carcinoma; 0.583 µM on VEGF-R2; 0.00337 µM in assay [1]; 0.00095 µM on CDK1:Cyclin-B; 0.317 µM on Aurora-A. In the assay on A375 malignant melanoma, this molecule displayed an IC50 of 0.00167 µM.

With `COc1cccc(Nc2nccc(-c3c[nH]c4ncccc34)n2)c1` [Cpd 6, (3-Methoxy-phenyl)-[4-(1H-pyrrolo[2,3-b]pyridin-3-yl)-pyrimidin-2-yl]-amine], the IC50 was around 1 µM at RET; 0.72 µM in the assay with HCT-116 colon carcinoma; 0.14 µM on VEGF-R2; 1.46 µM in assay [1]; 0.119 µM on CDK1:Cyclin-B; 0.1 µM against Aurora-A. In the assay with A375 malignant melanoma, this molecule came in with an IC50 of 0.95 µM.

Turning to `CCN(CC)CCc1ccc(Nc2nccc(-c3c[nH]c4ncccc34)n2)c(C)c1` [Cpd 47], the IC50 came out at 1.4 µM on RET; 0.00292 µM in the assay on HCT-116 colon carcinoma; 0.882 µM on VEGF-R2; 0.00302 µM in assay [1]; 0.0014 µM against CDK1:Cyclin-B; 0.972 µM against Aurora-A. Also, inhibition in the assay on A375 malignant melanoma was half-maximal at 0.00288 µM (IC50).

With `CCOc1ccc(Nc2nccc(-c3c[nH]c4ncccc34)n2)cc1` [Cpd 40, (4-Ethoxyphenyl)-[4-(1H-pyrrolo[2,3-b]pyridin-3-yl)-pyrimidin-2-yl]-amine], the IC50 against RET turned out to be 1 µM; with HCT-116 colon carcinoma it was 0.0244 µM; at VEGF-R2, 0.149 µM; in assay [1], 0.0662 µM; at CDK1:Cyclin-B, 0.01 µM; on Aurora-A, 0.084 µM. Moreover, in the assay on A375 malignant melanoma, it took 0.0565 µM to reach half-maximal inhibition (IC50).

For the molecule `Clc1ccc(Nc2nccc(-c3c[nH]c4ncccc34)n2)cc1` [Cpd 11, (4-Chloro-phenyl)-[4-(1-H-pyrrolo[2,3-b]pyridin-3-yl)-pyrimidin-2-yl]-amine], the IC50 against RET is above 10 µM; in the assay with HCT-116 colon carcinoma, 0.56 µM; against VEGF-R2, around 1 µM; in assay [1], 1.01 µM; at CDK1:Cyclin-B, 0.0696 µM; at Aurora-A, around 1 µM. This molecule also returned an IC50 with A375 malignant melanoma of 0.97 µM.

In the case of `Cc1cc(O)ccc1Nc1nccc(-c2c[nH]c3ncccc23)n1` [Cpd 79, 3-Methyl-4-[4-(1H-pyrrolo[2,3-b]pyridin-3-yl)-pyrimidin-2-ylamino]-phenol], the IC50 against RET is 4.82 µM; in the assay on HCT-116 colon carcinoma, 0.00492 µM; against VEGF-R2, 0.927 µM; in assay [1] it was 0.0059 µM; on CDK1:Cyclin-B, 0.000764 µM; on Aurora-A, 0.119 µM. Besides, the 50% inhibitory concentration (IC50) with A375 malignant melanoma was 0.00858 µM.

On to `Cc1cccc(C)c1Nc1nccc(-c2c[nH]c3ncccc23)n1` [Cpd 35, (2,6-Dimethylphenyl)-[4-(1H-pyrrolo[2,3-b]pyridin-3-yl)-pyrimidin-2-yl]-amine], for which the IC50 was 1 µM against RET; 0.0331 µM in the assay on HCT-116 colon carcinoma; 0.975 µM at VEGF-R2; 0.0903 µM in assay [1]; 0.017 µM against CDK1:Cyclin-B; 0.556 µM at Aurora-A. Besides, the IC50 in the assay with A375 malignant melanoma came to 0.0369 µM.
